From publication PMC7026418, “The kinase polypharmacology landscape of clinical PARP inhibitors” (Scientific Reports, 2020)
Where two headings read alike, the source gives them in different places.

Columns and labels:
Experiment in all cases: biochemical
Parameters in all cases: DiscoveRx KINOMEscan active site-directed competition binding; percent of control kinase bound to immobilised ligand
MARK3 = MARK3 (Homo sapiens, UniProt P27448)
ITK = biological target: T1, ITK (Homo sapiens, UniProt Q08881)
T1 sequence (Q08881 1-620): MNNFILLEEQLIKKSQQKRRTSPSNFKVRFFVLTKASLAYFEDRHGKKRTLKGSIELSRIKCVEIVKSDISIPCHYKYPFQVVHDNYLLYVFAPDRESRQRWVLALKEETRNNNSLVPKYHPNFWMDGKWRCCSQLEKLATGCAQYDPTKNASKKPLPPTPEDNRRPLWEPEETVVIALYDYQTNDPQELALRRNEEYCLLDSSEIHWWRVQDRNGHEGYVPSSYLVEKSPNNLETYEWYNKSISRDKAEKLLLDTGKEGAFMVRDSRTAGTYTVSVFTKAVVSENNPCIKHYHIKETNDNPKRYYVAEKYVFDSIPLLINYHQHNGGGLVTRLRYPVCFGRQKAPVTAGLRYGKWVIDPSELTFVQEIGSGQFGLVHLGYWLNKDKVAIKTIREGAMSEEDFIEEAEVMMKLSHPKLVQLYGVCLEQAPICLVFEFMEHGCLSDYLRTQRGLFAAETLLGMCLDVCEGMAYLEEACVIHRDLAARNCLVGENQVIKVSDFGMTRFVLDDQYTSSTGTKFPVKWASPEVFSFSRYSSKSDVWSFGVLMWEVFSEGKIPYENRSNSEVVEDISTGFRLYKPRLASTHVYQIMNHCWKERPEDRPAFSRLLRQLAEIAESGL

EPHA6 = biological target: T2, EPHA6 (Homo sapiens, UniProt Q9UF33)
T2 sequence (Q9UF33 1-1036): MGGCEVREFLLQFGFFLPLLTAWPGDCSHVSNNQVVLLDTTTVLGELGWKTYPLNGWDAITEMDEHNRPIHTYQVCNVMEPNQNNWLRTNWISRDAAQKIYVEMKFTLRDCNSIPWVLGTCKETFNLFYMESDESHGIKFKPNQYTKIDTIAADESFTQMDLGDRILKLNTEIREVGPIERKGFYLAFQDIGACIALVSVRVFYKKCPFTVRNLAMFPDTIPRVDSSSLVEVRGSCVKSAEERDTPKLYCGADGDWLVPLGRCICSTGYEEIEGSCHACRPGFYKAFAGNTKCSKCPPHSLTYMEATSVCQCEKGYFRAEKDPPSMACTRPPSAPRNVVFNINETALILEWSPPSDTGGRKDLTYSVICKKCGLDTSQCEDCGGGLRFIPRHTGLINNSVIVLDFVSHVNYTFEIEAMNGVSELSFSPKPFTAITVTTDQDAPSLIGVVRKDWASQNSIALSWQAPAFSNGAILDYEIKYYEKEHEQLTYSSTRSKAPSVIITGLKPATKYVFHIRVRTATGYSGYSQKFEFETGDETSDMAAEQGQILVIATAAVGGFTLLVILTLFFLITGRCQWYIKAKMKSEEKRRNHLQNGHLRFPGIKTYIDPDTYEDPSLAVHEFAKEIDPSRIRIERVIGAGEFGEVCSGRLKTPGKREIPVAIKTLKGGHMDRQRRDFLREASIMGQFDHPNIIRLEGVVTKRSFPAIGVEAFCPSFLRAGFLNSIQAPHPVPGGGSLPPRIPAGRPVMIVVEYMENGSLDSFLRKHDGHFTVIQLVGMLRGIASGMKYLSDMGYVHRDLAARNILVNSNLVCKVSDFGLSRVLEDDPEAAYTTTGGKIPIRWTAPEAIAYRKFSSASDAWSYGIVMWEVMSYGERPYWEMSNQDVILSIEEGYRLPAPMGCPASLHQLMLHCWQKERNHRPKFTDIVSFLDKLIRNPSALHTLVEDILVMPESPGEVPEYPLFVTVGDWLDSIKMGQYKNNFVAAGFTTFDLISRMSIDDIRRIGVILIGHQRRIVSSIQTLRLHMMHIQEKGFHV

ADCK4 = biological target: T3, ADCK4 (Homo sapiens, UniProt Q96D53)
T3 construct: gene COQ8B
T3 sequence (Q96D53 1-544): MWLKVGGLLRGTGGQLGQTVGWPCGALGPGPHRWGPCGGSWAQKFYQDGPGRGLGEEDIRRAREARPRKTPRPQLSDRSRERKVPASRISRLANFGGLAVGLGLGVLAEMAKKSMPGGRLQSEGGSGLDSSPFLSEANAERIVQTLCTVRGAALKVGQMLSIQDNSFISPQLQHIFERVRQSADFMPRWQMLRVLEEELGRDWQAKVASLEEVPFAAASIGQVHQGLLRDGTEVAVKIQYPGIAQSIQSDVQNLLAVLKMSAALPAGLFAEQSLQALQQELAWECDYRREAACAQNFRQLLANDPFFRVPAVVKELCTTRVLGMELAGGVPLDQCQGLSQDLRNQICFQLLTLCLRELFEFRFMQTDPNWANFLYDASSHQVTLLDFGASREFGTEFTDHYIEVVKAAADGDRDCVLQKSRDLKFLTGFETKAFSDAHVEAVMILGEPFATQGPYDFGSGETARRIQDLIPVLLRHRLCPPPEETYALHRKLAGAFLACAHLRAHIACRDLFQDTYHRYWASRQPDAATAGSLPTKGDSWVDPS

EGFR(E746-A750del) = EGFR(E746-A750del) (Homo sapiens, UniProt P00533, DEL746-750)
PCTK3 = biological target: T4, PCTK3 (Homo sapiens, UniProt Q07002)
T4 construct: gene CDK18

PYK2 = biological target: T5, PYK2 (Homo sapiens, UniProt Q14289)
T5 construct: gene PTK2B

[1] = biological target: EGFR(L747-S752del, P753S) (Homo sapiens, UniProt P00533, DEL747-752/P753S)
[2] = read-out: Niraparib (MK-4827) / %Ctrl @ 10000nM
[3] = read-out: Olaparib / %Ctrl @ 10000nM
[4] = read-out: Rucaparib / %Ctrl @ 10000nM, binding competition, % of control
[5] = read-out: Talazoparib (BMN 673) / %Ctrl @ 10000nM

Sequence of MARK3 (P27448 whole entry): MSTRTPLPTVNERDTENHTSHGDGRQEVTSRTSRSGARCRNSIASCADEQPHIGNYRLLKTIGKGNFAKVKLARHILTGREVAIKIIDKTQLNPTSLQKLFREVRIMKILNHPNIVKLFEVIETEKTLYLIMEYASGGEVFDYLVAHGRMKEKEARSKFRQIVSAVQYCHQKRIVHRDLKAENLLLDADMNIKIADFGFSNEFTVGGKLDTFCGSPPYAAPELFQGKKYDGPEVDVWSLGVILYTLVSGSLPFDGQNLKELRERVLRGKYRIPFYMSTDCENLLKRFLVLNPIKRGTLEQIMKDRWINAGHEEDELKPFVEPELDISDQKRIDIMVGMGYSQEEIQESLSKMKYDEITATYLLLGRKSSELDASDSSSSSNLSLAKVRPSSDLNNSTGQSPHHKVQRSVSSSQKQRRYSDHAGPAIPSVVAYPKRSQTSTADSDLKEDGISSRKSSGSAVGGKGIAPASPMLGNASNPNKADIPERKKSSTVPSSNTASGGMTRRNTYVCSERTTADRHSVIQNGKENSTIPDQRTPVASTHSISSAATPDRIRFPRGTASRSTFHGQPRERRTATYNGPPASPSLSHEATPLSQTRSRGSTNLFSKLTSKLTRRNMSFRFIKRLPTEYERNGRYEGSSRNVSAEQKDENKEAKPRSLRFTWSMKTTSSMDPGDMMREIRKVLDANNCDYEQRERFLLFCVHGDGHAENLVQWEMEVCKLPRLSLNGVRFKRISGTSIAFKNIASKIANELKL
Sequence of EGFR(E746-A750del) (P00533 with tags, fused parts or gaps DEL746-750): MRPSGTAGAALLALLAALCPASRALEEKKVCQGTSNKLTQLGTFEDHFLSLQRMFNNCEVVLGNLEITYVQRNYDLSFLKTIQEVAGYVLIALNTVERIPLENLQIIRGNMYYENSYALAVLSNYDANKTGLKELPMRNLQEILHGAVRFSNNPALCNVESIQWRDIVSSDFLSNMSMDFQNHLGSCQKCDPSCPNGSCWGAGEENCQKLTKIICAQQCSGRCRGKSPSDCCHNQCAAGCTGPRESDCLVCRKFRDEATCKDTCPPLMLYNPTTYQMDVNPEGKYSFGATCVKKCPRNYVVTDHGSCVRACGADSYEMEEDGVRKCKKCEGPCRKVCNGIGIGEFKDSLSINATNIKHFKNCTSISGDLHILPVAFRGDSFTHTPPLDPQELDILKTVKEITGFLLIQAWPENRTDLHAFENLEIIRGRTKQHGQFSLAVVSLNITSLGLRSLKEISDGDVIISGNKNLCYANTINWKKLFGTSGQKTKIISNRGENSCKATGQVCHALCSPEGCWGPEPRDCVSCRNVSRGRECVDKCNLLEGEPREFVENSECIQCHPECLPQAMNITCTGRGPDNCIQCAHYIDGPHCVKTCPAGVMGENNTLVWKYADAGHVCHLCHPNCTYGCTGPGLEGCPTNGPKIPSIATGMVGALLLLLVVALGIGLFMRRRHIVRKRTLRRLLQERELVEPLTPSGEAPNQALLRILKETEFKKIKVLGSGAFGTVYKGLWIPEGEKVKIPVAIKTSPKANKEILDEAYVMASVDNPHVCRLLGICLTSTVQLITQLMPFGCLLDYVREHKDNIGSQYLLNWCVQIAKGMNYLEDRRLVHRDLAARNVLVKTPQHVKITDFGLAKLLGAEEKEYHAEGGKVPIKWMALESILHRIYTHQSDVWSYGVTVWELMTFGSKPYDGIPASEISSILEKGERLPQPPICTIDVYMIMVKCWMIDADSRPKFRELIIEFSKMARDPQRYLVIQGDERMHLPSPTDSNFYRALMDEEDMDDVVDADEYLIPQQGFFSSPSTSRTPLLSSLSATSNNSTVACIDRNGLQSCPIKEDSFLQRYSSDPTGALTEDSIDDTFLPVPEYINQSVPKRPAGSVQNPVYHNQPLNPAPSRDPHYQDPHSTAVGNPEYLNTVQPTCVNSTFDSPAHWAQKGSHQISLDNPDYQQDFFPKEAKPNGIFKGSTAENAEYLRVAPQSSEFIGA
Sequence of EGFR(L747-S752del, P753S) (P00533 with tags, fused parts or gaps DEL747-752/P753S): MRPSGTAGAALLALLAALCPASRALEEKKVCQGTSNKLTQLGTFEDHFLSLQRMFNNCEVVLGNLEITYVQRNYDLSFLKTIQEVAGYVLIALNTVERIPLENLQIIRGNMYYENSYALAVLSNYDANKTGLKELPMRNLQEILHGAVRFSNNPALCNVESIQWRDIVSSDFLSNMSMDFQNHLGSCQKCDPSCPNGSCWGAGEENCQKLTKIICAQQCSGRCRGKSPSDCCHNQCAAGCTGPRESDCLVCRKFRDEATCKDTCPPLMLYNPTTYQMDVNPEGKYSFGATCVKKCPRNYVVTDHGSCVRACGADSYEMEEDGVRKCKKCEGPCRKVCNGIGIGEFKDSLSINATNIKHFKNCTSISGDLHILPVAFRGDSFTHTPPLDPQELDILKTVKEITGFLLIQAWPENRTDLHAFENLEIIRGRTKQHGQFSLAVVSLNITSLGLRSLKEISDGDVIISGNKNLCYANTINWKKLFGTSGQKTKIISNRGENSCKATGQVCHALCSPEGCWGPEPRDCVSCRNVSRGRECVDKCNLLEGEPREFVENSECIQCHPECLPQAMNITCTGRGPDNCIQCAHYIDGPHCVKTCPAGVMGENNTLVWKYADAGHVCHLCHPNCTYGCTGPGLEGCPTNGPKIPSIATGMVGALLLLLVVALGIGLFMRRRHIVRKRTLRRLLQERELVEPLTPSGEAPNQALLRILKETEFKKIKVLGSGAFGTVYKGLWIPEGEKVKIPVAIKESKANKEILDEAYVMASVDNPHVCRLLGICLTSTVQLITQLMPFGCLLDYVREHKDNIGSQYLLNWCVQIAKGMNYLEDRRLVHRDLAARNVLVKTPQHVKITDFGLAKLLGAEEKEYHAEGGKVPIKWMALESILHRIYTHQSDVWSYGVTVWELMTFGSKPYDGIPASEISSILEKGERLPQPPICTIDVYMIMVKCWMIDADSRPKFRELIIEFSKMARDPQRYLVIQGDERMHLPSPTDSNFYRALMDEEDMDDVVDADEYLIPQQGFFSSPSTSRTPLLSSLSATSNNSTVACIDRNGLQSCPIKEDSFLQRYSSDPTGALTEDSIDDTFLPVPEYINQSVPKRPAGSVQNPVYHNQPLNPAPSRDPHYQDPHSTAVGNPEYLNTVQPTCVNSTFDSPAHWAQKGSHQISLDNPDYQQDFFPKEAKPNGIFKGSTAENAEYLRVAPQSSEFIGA
T5 sequence (Q14289 whole entry): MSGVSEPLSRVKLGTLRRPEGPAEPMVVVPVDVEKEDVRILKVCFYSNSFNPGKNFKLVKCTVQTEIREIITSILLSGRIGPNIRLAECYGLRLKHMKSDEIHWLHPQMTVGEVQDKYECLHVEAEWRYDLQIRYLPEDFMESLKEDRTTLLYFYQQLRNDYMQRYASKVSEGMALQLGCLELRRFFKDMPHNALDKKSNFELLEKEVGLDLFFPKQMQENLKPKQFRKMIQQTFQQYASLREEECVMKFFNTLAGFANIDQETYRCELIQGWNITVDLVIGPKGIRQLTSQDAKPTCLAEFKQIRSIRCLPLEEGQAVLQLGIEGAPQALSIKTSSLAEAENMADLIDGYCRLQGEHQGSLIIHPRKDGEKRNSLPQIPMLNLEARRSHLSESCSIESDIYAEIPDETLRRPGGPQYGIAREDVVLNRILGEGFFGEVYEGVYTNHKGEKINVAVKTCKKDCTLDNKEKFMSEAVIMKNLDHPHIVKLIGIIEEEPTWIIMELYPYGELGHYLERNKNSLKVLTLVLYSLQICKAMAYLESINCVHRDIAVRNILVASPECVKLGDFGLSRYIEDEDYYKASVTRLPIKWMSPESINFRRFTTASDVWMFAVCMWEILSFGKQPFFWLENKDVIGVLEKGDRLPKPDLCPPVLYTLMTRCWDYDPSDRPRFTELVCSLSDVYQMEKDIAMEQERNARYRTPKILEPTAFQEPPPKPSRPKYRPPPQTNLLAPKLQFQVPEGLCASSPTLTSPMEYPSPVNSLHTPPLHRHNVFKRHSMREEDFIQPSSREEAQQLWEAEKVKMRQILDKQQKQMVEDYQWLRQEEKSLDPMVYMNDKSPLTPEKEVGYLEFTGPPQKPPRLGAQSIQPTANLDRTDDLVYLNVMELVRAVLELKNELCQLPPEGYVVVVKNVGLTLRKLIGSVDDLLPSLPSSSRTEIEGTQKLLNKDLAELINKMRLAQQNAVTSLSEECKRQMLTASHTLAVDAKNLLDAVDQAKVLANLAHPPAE
T4 sequence (Q07002 whole entry): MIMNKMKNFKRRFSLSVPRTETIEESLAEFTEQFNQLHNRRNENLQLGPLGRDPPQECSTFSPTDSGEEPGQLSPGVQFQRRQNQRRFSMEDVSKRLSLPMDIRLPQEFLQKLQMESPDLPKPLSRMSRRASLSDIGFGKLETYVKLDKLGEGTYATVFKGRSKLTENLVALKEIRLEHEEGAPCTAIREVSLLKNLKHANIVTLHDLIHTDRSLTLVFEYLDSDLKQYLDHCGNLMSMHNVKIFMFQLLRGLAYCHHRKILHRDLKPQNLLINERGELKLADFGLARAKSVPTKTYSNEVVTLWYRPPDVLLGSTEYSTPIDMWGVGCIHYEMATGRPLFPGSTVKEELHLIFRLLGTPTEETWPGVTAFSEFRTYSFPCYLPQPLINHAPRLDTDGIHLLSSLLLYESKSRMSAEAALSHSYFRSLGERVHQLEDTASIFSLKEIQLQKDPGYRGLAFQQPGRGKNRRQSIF

Question: `NC(=O)c1cccc2cn(-c3ccc([C@@H]4CCCNC4)cc3)nc12` [Niraparib] was tested. Which percent of control binding at 10 µM (MARK3; [2]) did it give?
Answer: The percent of control binding at 10 µM was 91%.

Question: And the percent of control binding at 10 µM (ITK; [2])?
Answer: The percent of control binding at 10 µM was 91%.

Question: What about the percent of control binding at 10 µM (EPHA6; [2]) of the same compound?
Answer: The percent of control binding at 10 µM was 89%.

Question: What about the percent of control binding at 10 µM (ADCK4; [2]) of the same compound?
Answer: Its percent of control binding at 10 µM is 100%.

Question: What about the percent of control binding at 10 µM (EGFR(E746-A750del); [2]) of the same compound?
Answer: Its percent of control binding at 10 µM is 96%.

Question: And the percent of control binding at 10 µM (PCTK3; [2])?
Answer: Its percent of control binding at 10 µM is 70%.

Question: What about the percent of control binding at 10 µM (PYK2; [2]) of the same compound?
Answer: Its percent of control binding at 10 µM is 86%.

Question: And the percent of control binding at 10 µM [1, 2]?
Answer: Its percent of control binding at 10 µM is 93%.

Question: For `O=C(c1cc(Cc2n[nH]c(=O)c3ccccc23)ccc1F)N1CCN(C(=O)C2CC2)CC1` [Olaparib], which percent of control binding at 10 µM (MARK3; [3]) is on record?
Answer: Its percent of control binding at 10 µM is 96%.

Question: And the percent of control binding at 10 µM (ITK; [3])?
Answer: The percent of control binding at 10 µM was 100%.

Question: What about the percent of control binding at 10 µM (EPHA6; [3]) of the same compound?
Answer: Its percent of control binding at 10 µM is 94%.

Question: And the percent of control binding at 10 µM (ADCK4; [3])?
Answer: Its percent of control binding at 10 µM is 97%.

Question: What about the percent of control binding at 10 µM (EGFR(E746-A750del); [3]) of the same compound?
Answer: The percent of control binding at 10 µM was 97%.

Question: What about the percent of control binding at 10 µM (PCTK3; [3]) of the same compound?
Answer: The percent of control binding at 10 µM was 100%.

Question: What about the percent of control binding at 10 µM (PYK2; [3]) of the same compound?
Answer: Its percent of control binding at 10 µM is 99%.

Question: What about the percent of control binding at 10 µM [1, 3] of the same compound?
Answer: Its percent of control binding at 10 µM is 100%.

Question: For `CNCc1ccc(-c2[nH]c3cc(F)cc4c3c2CCNC4=O)cc1` [Rucaparib], which percent of control binding at 10 µM (MARK3; [4]) is on record?
Answer: Its percent of control binding at 10 µM is 100%.

Question: What about the percent of control binding at 10 µM (ITK; [4]) of the same compound?
Answer: Its percent of control binding at 10 µM is 100%.

Question: What about the percent of control binding at 10 µM (EPHA6; [4]) of the same compound?
Answer: The percent of control binding at 10 µM was 99%.

Question: And the percent of control binding at 10 µM (ADCK4; [4])?
Answer: Its percent of control binding at 10 µM is 82%.

Question: And the percent of control binding at 10 µM (EGFR(E746-A750del); [4])?
Answer: The percent of control binding at 10 µM was 81%.

Question: What about the percent of control binding at 10 µM (PCTK3; [4]) of the same compound?
Answer: The percent of control binding at 10 µM was 69%.

Question: What about the percent of control binding at 10 µM (PYK2; [4]) of the same compound?
Answer: The percent of control binding at 10 µM was 100%.

Question: What about the percent of control binding at 10 µM [1, 4] of the same compound?
Answer: Its percent of control binding at 10 µM is 100%.

Question: Which results are given for `Cn1ncnc1[C@H]1c2n[nH]c(=O)c3cc(F)cc(c23)N[C@@H]1c1ccc(F)cc1` [Talazoparib]?
Answer: percent of control binding at 10 µM (MARK3; [5]): 98%; percent of control binding at 10 µM (ITK; [5]): 84%; percent of control binding at 10 µM (EPHA6; [5]): 100%; percent of control binding at 10 µM (ADCK4; [5]): 100%; percent of control binding at 10 µM (EGFR(E746-A750del); [5]): 100%; percent of control binding at 10 µM (PCTK3; [5]): 99%; percent of control binding at 10 µM (PYK2; [5]): 97%; percent of control binding at 10 µM [1, 5]: 98%
